The test system of this test is Staphylococcus aureus. As to the kind of experiment: Antibacterial activity against Staphylococcus aureus CCT 4295. In kind it is functional, organism-based.

Activity calls are given as the source filed them. No cut-off for these calls is given here.

For `COc1c(O)c2c(c3c1CCOC3=O)CC[C@H]1C(C)(C)CCC[C@]21C`, the outcome was Active.

These data come from ChEMBL document CHEMBL1141792, “Swartziarboreol diterpenes from Swartzia langsdorffii Raddi” (J Nat Prod, 2005).
